Test results published in publication PMC12006963, “Application of Deuterium in an M1 Positive Allosteric Modulator Back-Up Program: The Discovery of VU6045422” (ACS Chemical Neuroscience, 2025).
pEC50: −log10 of the molar value. Where two headings read alike, the source gives them in different places.

What was measured:
M1 = target: T1, M1 (Homo sapiens, UniProt P11229); assay: Calcium mobilization, human M1 CHO cells (agonist and PAM modes); assay type: cell-based; settings: for M1 agonism: in words
T1 construct: expressed in transfected cells
T1 sequence (P11229 1-460): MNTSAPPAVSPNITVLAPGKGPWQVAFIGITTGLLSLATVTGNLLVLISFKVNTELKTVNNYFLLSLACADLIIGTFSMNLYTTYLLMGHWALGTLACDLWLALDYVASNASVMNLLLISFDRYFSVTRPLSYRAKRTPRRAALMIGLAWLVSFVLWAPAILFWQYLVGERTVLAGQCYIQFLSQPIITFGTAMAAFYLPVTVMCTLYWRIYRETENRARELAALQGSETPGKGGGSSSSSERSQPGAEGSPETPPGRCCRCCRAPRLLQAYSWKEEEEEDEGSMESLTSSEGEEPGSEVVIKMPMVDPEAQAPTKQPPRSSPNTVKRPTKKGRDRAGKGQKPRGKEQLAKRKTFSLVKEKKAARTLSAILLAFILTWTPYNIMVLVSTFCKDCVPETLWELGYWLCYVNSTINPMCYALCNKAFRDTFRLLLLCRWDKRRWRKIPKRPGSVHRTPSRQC

[1] = Predicted hepatic clearance, hepatic microsomes (rat); assay type: in vitro ADME
Description: (§1) After a 5 min preincubation, the reaction was initiated by the addition of NADPH (1 mM). At selected time intervals (0, 3, 7, 15, 25, and 45 min), aliquots were taken and subsequently placed into a 96-well plate containing cold acetonitrile with internal standard (50 ng/mL carbamazepine). Plates were then centrifuged at 3000 rcf (4 °C) for 10 min, and the supernatant was transferred to a separate 96-well plate and diluted 1:1 with water for LC/MS/MS analysis. The in vitro half-life ( 1/2, min, Eq. 1), intrinsic clearance (CLint, mL/min/kg, Eq. 2), and subsequent predicted hepatic clearance (CLhep, mL/min/kg, Eq. 3) was determined employing the […]
(§2) where k represents the slope from linear regression analysis of the natural log percent remaining of a test compound as a function of incubation time […]
(§3) (2) CLint = in vitroT1/2 x mg microsomes x gram liver x kg body wt ascale-up factors: of 20 (human) or 45 (rat) […]
(§4) where Qh (hepatic blood flow, mL/min/kg) is 21 (human) or 70 (rat).
(§5) LC/MS/MS Bioanalysis of Samples from Plasma Protein Binding and Intrinsic Clearance […]
(§6) Samples were analyzed on a Thermo Electron TSQ Quantum Ultra triple quad mass spectrometer (San Jose, CA) via electrospray ionization (ESI) with two Themo Electron Accella pumps (San Jose, CA), and a Leap Technologies CTC PAL autosampler (Carrboro, NC). Analytes were separated by gradient elution on a dual column system with two Thermo Hypersil Gold (2.1 x 30 mm, 1.9 µm) columns (San Jose, CA) thermostated at 40 °C. HPLC mobile phase A was 0.1% formic acid in water and mobile phase B was 0.1% formic acid in acetonitrile. The gradient started […]
(§7) for 0.2 min; returned to 10% B in 0.1 min. The total run time was 1.3 min and the HPLC flow rate was 0.8 mL/min. While pump 1 ran the gradient method, pump 2 equilibrated the alternate column isocratically at 10% B. Compound optimization, data collection, and processing was performed using Thermo Electron's QuickQuan software (v2.3) and Xcalibur (v2.0.7 SP1).
(§8) In vivo DMPK experimental:
(§9) Determination of brain to plasma ratio: […]

[2] = Predicted hepatic clearance, hepatic microsomes (dog); assay type: in vitro ADME
Description: as §1, §2, §3, §4, §5, §6, §7, §8, §9

[3] = PAM mode, read-out: hM1 PAM EC50
[4] = agonist mode, read-out: hM1 Agonist EC50

| SMILES | hM1 PAM AChmax (%) (M1) | pEC50 (M1; [3]) | pEC50 (M1; [4]) | hM1 PAM AChmax (%) (pEC50 line) (M1; mean ± spread) | Predicted CLhep [1] [mL/min/kg] | Predicted CLhep [2] [mL/min/kg] | M1 agonism (M1) | EC50 (M1; mean ± spread, n in cell, read-out: hM1 PAM pEC50 (converted)) [nM] |
| --- | --- | --- | --- | --- | --- | --- | --- | --- |
| Cn1cc2c(-c3cc(F)c(CN4Cc5ncccc5C4=O)c(F)c3)cccc2n1 [compound 1] | 80 | 6.31 | < 4.52 | 71±9.9 | 5.7 | 5.5 |  |  |
| [2H]C1([2H])c2ncccc2C(=O)N1Cc1c(F)cc(-c2cccc3nn(C)cc23)cc1F [compound 3] | 81 | 6.20 | < 4.52 | 78±2.2 | 41.3 | 14.4 | minimal M1 agonism |  |
| [2H]C1([2H])c2ncccc2C(=O)N1Cc1c(F)cc(-c2cccc3nn(C([2H])([2H])[2H])cc23)cc1F [compound 5] | 80 | 6.72 | < 4.52 | 82±1.8 | 35.9 | 8.8 | minimal M1 agonism | 182 |
